Test results as given in PMC10100771, “A Novel CMY Variant Confers Transferable High-Level Resistance to Ceftazidime-Avibactam in Multidrug-Resistant Escherichia coli” (Microbiology Spectrum, 2023).
Converted amounts (≈) assume the structure as drawn.

How the values were obtained:
E. coli J53 = experiment: MIC by agar dilution, recipient E. coli J53; format: cell-based; conditions: Escherichia coli
Procedure: (§1) Antimicrobial susceptibility testing was performed and interpreted according to the Clinical and Laboratory Standards Institute (CLSI) guidelines and breakpoints (M100, 31st edition) by the agar dilution method. E. coli ATCC 25922 and K. pneumoniae ATCC 700603 served as control strains.
(§2) The antibiotics we used included meropenem (Hanhui Pharmaceutical Co., Ltd., China), imipenem (Merck Sharp & Dohme Corp., USA), cefepime (Jiangsu Hengrui Pharmaceutical Co., Ltd., China), piperacillin (Suzhou Erye Pharmaceutical Co., Ltd., China), ceftazidime (Guangdong Jincheng Jinsu Pharmaceutical Co., Ltd., China), tazobactam (Meilunbio, China), avibactam (MedChemExpress, USA), aztreonam (Sigma-Aldrich, USA), amikacin (Meilunbio), cefuroxime (Esseti Farmaceutici S.r.l., Italy), fosfomycin (Harbin Pharmaceutical Group Co., Ltd. China), levofloxacin (Daiichi Sankyo Company Limited, Beijing, China), and cefotaxime (North China Pharmaceutical Hebei Huamin Pharmaceutical Co., Ltd., China).
(§3) Conjugation experiments were performed by filter mating using sodium-azide-resistant E. coli J53 as the recipient, as described previously. Transconjugants were selected with MH agar containing 100 μg/mL sodium azide and 4 μg/mL ceftazidime-avibactam; furthermore, transconjugants were named J53-AR13438 and J53-KPCZA02, respectively. We compared genomes of AR13438 and J53 to select a unique gene (gtrA) to J53. The blaCMY-178-postive transconjugants were confirmed by PCR and MALDI-TOF MS (see Fig. S9 in the supplemental material). The primers used for PCR were gtrA-F, gtrA-R, CMY-F, and CMY-R (Table S1). The transfer frequencies were calculated as the number of transconjugants (CFU/mL) divided by the number of recipients (CFU/mL). Donors and recipients were mixed at 1:1 for the transfer frequency experiment. S1-PFGE and Southern blotting were performed to define the location of blaCMY-178 and confirm the transmission of the plasmid as described previously ([35]). The MIC profiles of transconjugants were also determined by the agar dilution method.

E. coli J53-KPCZA02 = experiment: MIC by agar dilution, conjugant containing pKPCZA02_4; format: cell-based; conditions: Escherichia coli, J53KPCZA02, E. coli J53-KPCZA02 (blaCMY-172)
Procedure: as §1
as §3, with “The blaCMY-178-postive transconjugants were confirmed by PCR and MALDI-TOF MS (see Fig. S9 in the supplemental material).” left out

E. coli DH5α = experiment: MIC by agar dilution, E. coli DH5α; format: cell-based; conditions: Escherichia coli
Procedure: as §1, §2

[1] = tested on: E. coli DH5α-pCR2.1-CMY-172; experiment: MIC by agar dilution, transformant containing blaCMY-172; format: cell-based; conditions: Escherichia coli
Procedure: as §1, §2
(§4) The blaCMY cloning was performed using a TA cloning kit (Invitrogen, Shanghai, China). The blaCMY-178 gene combined with its predicted promoter was amplified from isolate AR13438. Then, the blaCMY-178 gene was cloned into the linearized vector pCR2.1 using T4 DNA ligase (Invitrogen). The blaCMY-172 gene was cloned from KPCZA02 with the same method. The resulting plasmids were chemically transformed into E. coli DH5α. The positive transformants were identified by blue-white screening in MH agar containing 50 μg/mL kanamycin and were further confirmed by Sanger sequencing. The pCR2.1 blank vector was also transformed into E. coli DH5α as a control. The primers used for cloning were CMY-F and CMY-R (see Table S2 in the supplemental material). Relative CMY expression was measured by reverse transcription-quantitative PCR as described previously ([34]). Specific quantitative PCR (qPCR) primers (q-recA-F/R and q-CMY-F/R) were designed (Table S2).

E. coli strain AR13438 = experiment: MIC by agar dilution, clinical isolate AR13438; format: cell-based, Escherichia coli; conditions: for Antimicrobial susceptibility category: AR13438, CLSI breakpoints (M100, 31st edition); for MIC: Escherichia coli, AR13438, clinical E. coli isolate (blaCMY-178, blaTEM-1, blaCTX-M-27), agar dilution
Procedure: as §1, §2

E. coli J53-AR13438 = experiment: MIC by agar dilution, conjugant containing pAR13438_2; format: cell-based; conditions: Escherichia coli, J53AR13438, E. coli J53-AR13438 (blaCMY-178)
Procedure: as §1
as §3, with “The blaCMY-178-postive transconjugants were confirmed by PCR and MALDI-TOF MS (see Fig. S9 in the supplemental material).” left out

[2] = tested on: K. pneumoniae isolate KPCZA02; experiment: microbe, parasite or virus in culture; format: cell-based; conditions: Klebsiella pneumoniae
Procedure: as §1

E. coli DH5α-pCR2.1 = experiment: MIC by agar dilution, DH5α with blank vector pCR2.1; format: cell-based; conditions: Escherichia coli
Procedure: as §1, §2, §4

[3] = tested on: E. coli DH5α-pCR2.1-CMY-178; experiment: MIC by agar dilution, transformant containing blaCMY-178; format: cell-based, Escherichia coli; conditions: for MIC: Escherichia coli, E. coli DH5α-pCR2.1-CMY-178, agar dilution; for Increase of MIC by blaCMY-178 compared with blaCMY-172: transformants in E. coli DH5α
Procedure: as §1, §2, §4

[4] = tested on: E. coli DH5α-pCR2.1-CMY-2; experiment: MIC by agar dilution, transformant containing blaCMY-2; format: cell-based; conditions: Escherichia coli

| Compound | MIC (E. coli J53) | MIC (E. coli J53-KPCZA02) | MIC (E. coli DH5α) | MIC [1] | Antimicrobial susceptibility category (E. coli strain AR13438) | MIC (E. coli strain AR13438) | MIC (E. coli J53-AR13438) | MIC [2] | MIC (E. coli DH5α-pCR2.1) | MIC [3] | Increase of MIC by blaCMY-178 compared with blaCMY-172 [3] | MIC [4] |
| --- | --- | --- | --- | --- | --- | --- | --- | --- | --- | --- | --- | --- |
| NCC[C@H](O)C(=O)N[C@@H]1C[C@H](N)[C@@H](O[C@H]2O[C@H](CN)[C@@H](O)[C@H](O)[C@H]2O)[C@H](O)[C@H]1O[C@H]1O[C@H](CO)[C@@H](O)[C@H](N)[C@H]1O [AMK, amikacin] | 2 µg/mL (≈ 3.42 µM) | 2 µg/mL (≈ 3.42 µM) | 1 µg/mL (≈ 1.71 µM) | 2 µg/mL (≈ 3.42 µM) | resistant | > 256 µg/mL | 2 µg/mL (≈ 3.42 µM) | > 256 µg/mL | 1 µg/mL (≈ 1.71 µM) | – | – | – |
| C[C@H]1[C@H](NC(=O)/C(=N\OC(C)(C)C(=O)O)c2csc(N)n2)C(=O)N1S(=O)(=O)O [ATM, aztreonam] | 0.12 µg/mL (≈ 0.276 µM) | – | 0.06 µg/mL (≈ 0.138 µM) | 8 µg/mL (≈ 18.4 µM) | – | 32 µg/mL (≈ 73.5 µM) | 32 µg/mL (≈ 73.5 µM) | – | 0.12 µg/mL (≈ 0.276 µM) | 32 µg/mL (≈ 73.5 µM) | 4 fold | 32 µg/mL (≈ 73.5 µM) |
| CC(C)(O/N=C(\C(=O)N[C@@H]1C(=O)N2C(C(=O)[O-])=C(C[N+]3(CCNC(=O)c4ccc(O)c(O)c4Cl)CCCC3)CS[C@H]12)c1csc(N)n1)C(=O)O [CFDC, cefiderocol] | – | – | < 0.03 µg/mL | 1 µg/mL (≈ 1.33 µM) | susceptible | 0.25 µg/mL (≈ 0.332 µM) | – | 1 µg/mL (≈ 1.33 µM) | < 0.03 µg/mL | 1 µg/mL (≈ 1.33 µM) | – | 0.125 µg/mL (≈ 0.166 µM) |
| CO/N=C(\C(=O)N[C@@H]1C(=O)N2C(C(=O)O)=C(COC(C)=O)CS[C@H]12)c1csc(N)n1 [CTX, cefotaxime] | 0.06 µg/mL (≈ 0.132 µM) | 16 µg/mL (≈ 35.1 µM) | 0.03 µg/mL (≈ 0.0659 µM) | 32 µg/mL (≈ 70.3 µM) | – | > 128 µg/mL | 32 µg/mL (≈ 70.3 µM) | > 128 µg/mL | 0.06 µg/mL (≈ 0.132 µM) | 128 µg/mL (≈ 281 µM) | 4 fold | 32 µg/mL (≈ 70.3 µM) |
| CO/N=C(\C(=O)N[C@@H]1C(=O)N2C(C(=O)O)=C(COC(N)=O)CS[C@H]12)c1ccco1 [CXM, cefuroxime] | 16 µg/mL (≈ 37.7 µM) | 256 µg/mL (≈ 603 µM) | 4 µg/mL (≈ 9.43 µM) | 64 µg/mL (≈ 151 µM) | – | > 1020 µg/mL | 256 µg/mL (≈ 603 µM) | > 1020 µg/mL | 4 µg/mL (≈ 9.43 µM) | 1020 µg/mL (≈ 2410 µM) | over 4 fold | 128 µg/mL (≈ 302 µM) |
| CO/N=C(\C(=O)N[C@@H]1C(=O)N2C(C(=O)[O-])=C(C[N+]3(C)CCCC3)CS[C@H]12)c1csc(N)n1 [FEP, cefepime] | 0.06 µg/mL (≈ 0.125 µM) | 32 µg/mL (≈ 66.6 µM) | 0.06 µg/mL (≈ 0.125 µM) | 16 µg/mL (≈ 33.3 µM) | – | 128 µg/mL (≈ 266 µM) | 32 µg/mL (≈ 66.6 µM) | > 128 µg/mL | 0.12 µg/mL (≈ 0.25 µM) | 64 µg/mL (≈ 133 µM) | 4 fold | 2 µg/mL (≈ 4.16 µM) |
